Results reported in article PMC6977318, “In vitro and in situ study on characterization and mechanism of the intestinal absorption of 2,3,5,4′-tetrahydroxy-stilbene-2-O-β-D-glucoside” (BMC Pharmacology & Toxicology, 2020).

How the values were obtained:
[1] = test system: Caco-2 cell monolayer; experiment: Bidirectional transport across Caco-2 cell monolayer (Papp); type: in vitro ADME
Method: Then, the supernatant was analyzed by HPLC. […] The injected sample volume was 5 μL. TSG was detected at wavelength of 320 nm.
(§1) (1): 1 Papp=dQ/dt×1/A×1/C0

[2] = In situ single-pass intestinal perfusion of TSG in rats (Ka, PA); type: in vivo, rat
Method: The proper amount of TSG was accurately weighed, and the intestinal circulation liquid with a concentration of 10, 30 and 60 μg·mL^− 1 was prepared by using a blank intestinal circulation solution.
24 SD rats, half male and half female, were fasted for 12 h but permitted to drink water freely before surgery. Rats were anesthetized by intraperitoneal injection of 25% urethane ([…]) and placed in a supine position on the operating table. The abdominal cavity was opened along the midline of the abdomen, then the incision was made at the duodenum and the ileum. The polyethylene tubes were carefully inserted at both sides of the segment and ligatured with a sterile surgical line. The contents of the intestines were slowly rinsed with 0.9% saline, prewarmed at 37 °C, and the residual liquid in the intestine was drained with air. Afterward, the wound in the abdomen of the rats was covered with a gauze soaked with 37 °C 0.9% saline buffer to moisturize after the operation, warmed with infrared lamp. The intestinal was equilibrated with a drug-containing perfusate (the concentration of TSG was 10, 30 and 60 μg·mL^− 1 respectively) which was preheated at 37 °C at a flow rate of 5 mL·min^− 1. Samples were collected in EP tubes after 10 min, and blank intestinal circulation solution (1 mL) was quickly added to circulatory solution. After that, the flow rate was adjusted to 2 mL·min^− 1, and the samples were taken at 10 min intervals for 4 h. In addition, in order to study the effects of different pH on intestinal absorption of TSG, the pH of the blank intestinal circulation solution was adjusted to 5.4 and 6.4, respectively. Finally, the experimental animals were euthanized by the method of rapid decapitation when the experiment was over. The procedures and precautions for sacrifice were the same as previously described.
(§2) 1 mL sample was mixed with equal amount of methanol, filtered through a membrane filter (0.45 μm pore size), and centrifuged at 12000 r·min^− 1 for 10 min. […] The mobile phase consisted of (A) 0.1% formic acid water and (B) acetonitrile. The gradient elution was set as: linear gradient elution 20–35% B (0-15 min) with a flow rate of 1 mL·min^− 1. The injected sample volume was 5 μL. TSG was detected at wavelength of 320 nm and phenol red was detected at wavelength of 430 nm. The concentration of phenol red was used to correct the volume of intestinal circulating fluid. The concentration of TSG and the volume of intestinal circulating fluid in each time period was used to calculate the residual drug amount (X). With the sampling time t as independent variable and lnX as dependent variable, the absorption rate constant Ka was determined from the slope of the straight line. The drug absorption percentage were calculated by the ratio of the change value of the remaining dose of t (h) to the amount of the remaining drug at time 0.
(§3) The absorption rate constants (Ka) and percentage of absorption (PA, %) were calculated using the following eqs. (3), (4), respectively.
(§4) Where X was the residual drug amount, C0 was the drug concentration of intestinal circulation liquid at 0 min, V0 was the drug volume of intestinal circulation liquid at 0 min, Ct was the drug concentration of intestinal circulation liquid at t min, Vt was the drug volume of intestinal circulation liquid at t min, t was the perfusion time.

[3] = In situ gastric perfusion of TSG in rats; type: in vivo; details: rat
Method: According to the Chinese Pharmacopoeia, the artificial gastric juice without pepsin is configured under the time limit inspection method of disintegration.
The appropriate amount of TSG was accurately weighed, and the gastric perfusate was prepared at a concentration of 10, 30 and 60 μg·mL^− 1 using artificial gastric juice.
24 SD rats, half male and half female, were fasted for 12 h but permitted to drink water freely before surgery. Rats were anesthetized by intraperitoneal injection of 25% urethane ([…]) and placed in a supine position on the operating table. The abdominal cavity was opened along the midline of the abdomen, then the incision was made at the duodenum and the ileum. The polyethylene tubes were carefully inserted at both sides of the segment and ligatured with a sterile surgical line. […]
1 mL sample was mixed with equal amount of methanol, filtered through a membrane filter (0.45 μm pore size), and centrifuged at 12000 r·min^− 1 for 10 min. […] TSG was detected at wavelength of 320 nm and phenol red was detected at wavelength of 430 nm. […] With the sampling time t as independent variable and lnX as dependent variable, the absorption rate constant Ka was determined from the slope of the straight line. The drug absorption percentage were calculated by the ratio of the change value of the remaining dose of t (h) to the amount of the remaining drug at time 0.

[4] = test system: MRP2; experiment: Western blotting, expression of MRP2 in Caco-2 cells after TSG; type: cell-based; details: TSG 10, 30 and 60 μg·mL^− 1, 4 h; significant at 30 and 60 μg·mL^− 1 (p < 0.05)
Method: (§5) When Caco-2 cells grew to 80–90%, the cell were treated with different concentrations (10, 30 and 60 μg·mL^− 1) of TSG and blank medium solution (blank control group). […] The concentration of total proteins was detected by BCA kit, and the supernatant were mix with SDS-PAGE sample buffer after protein quantification, denatured on a heater for 5 min and stored.
(§6) The total proteins were electrophoresed in 10% SDS-PAGE gel and then transferred to PVDF membranes by wet process to block with 5% skim milk for 2 h at room temperature. Membranes were incubated overnight with the following primary antibodies Anti-P glycoprotein antibody (1:2000), Anti-MRP2 antibody (1:500), and GAPDH polyclonal antibody. After that, the membranes were washed with 0.1% TBST for 3 times and 10 min each time and incubated with corresponding secondary antibody (1:5000) for 1 h at room temperature. The OD density values of bands were analyzed using gel imaging and analysis system.

[5] = MTT cytotoxicity of TSG for Caco-2 cells; type: cell-based; details: human; Caco-2 cells, 60 μg·mL^− 1 TSG, 5 h, MTT; read-out: cell viability
Method: (§7) MTT assay was firstly used to investigate the effect of TSG with different concentrations on Caco-2 cells vitality. Briefly, Caco-2 cells were seeded in 96-wells plates at a density of 1 × 10^4 cells per well and placed in a 5% carbon dioxide incubator. After 48 h incubation, the cells were treated with increasing concentrations of TSG (0.75–240 μg·mL^− 1) and DMEM (containing 1%FBS) as a negative control. After 5 h of incubation, 20 μL of 5 mg·mL^− 1 MTT was added to each well, and the plate was incubated at 37 °C for 4 h. Then 150 μL of DMSO was added to each well after the supernatant was discarded. Absorbance was measured at a wavelength of 570 nm.

[6] = test system: Caco-2 cells; experiment: MTT cytotoxicity of TSG for Caco-2 cells; type: cell-based
Method: as §7

[7] = design: method as in PMID 23371758; details: rats plasma, two-compartment model; cited from earlier work
[8] = test system: P-gp; experiment: Western blotting, expression of P-gp in Caco-2 cells after TSG; type: cell-based; details: TSG 10, 30 and 60 μg·mL^− 1, 4 h; significant at 60 μg·mL^− 1 (p < 0.05)
Method: as §5, §6

[9] = biological target: T1, MRP2 (Rattus norvegicus, UniProt Q63120); experiment: Effect of MRP2 inhibitor on intestinal absorption of TSG, in situ perfusion; type: in vivo
T1 construct: from tissue; host or cells: rat small intestine, perfused in situ
Method: The perfusion was started with inhibitor solution at a flow rate of 2 mL·min^− 1, and after 30 min, it was replaced with TSG solution to investigate the influences of efflux proteins on TSG.
as §2, §3, §4

[10] = test system: MRP2; experiment: Effect of MRP2 inhibitor on TSG transport across Caco-2 cell monolayer; type: in vitro ADME
Method: The effect of efflux protein inhibitors on the intestinal absorption of TSG was studied based on Caco-2 cell monolayer model. […] Before the administration, the inhibitor was added to AP side and BL side, and the plate was placed in an incubator. After 30 min, the inhibitor solution was replaced with TSG solution at concentration of 30 μg·mL^− 1 to inspect the effect of efflux proteins on TSG.
Then, the supernatant was analyzed by HPLC. HPLC separation was performed on Eclipse Plus C18 column (4.6 mm × 250 mm, 5 μm) at 30 °C. The mobile phase consisted of acetonitrile and 0.1% formic acid water (25:75) and the velocity of flow is 1 mL·min^− 1. The injected sample volume was 5 μL. TSG was detected at wavelength of 320 nm.
as §1

[11] = inhibitor 5 μg·mL^− 1, TSG 30 μg·mL^− 1, compared with TSG alone
[12] = inhibitor 25 μg·mL^− 1, TSG 30 μg·mL^− 1, compared with TSG alone
[13] = inhibitor 25 μg·mL^− 1, p < 0.05, rat

T1 sequence (Q63120 whole entry, the tested form may be a part): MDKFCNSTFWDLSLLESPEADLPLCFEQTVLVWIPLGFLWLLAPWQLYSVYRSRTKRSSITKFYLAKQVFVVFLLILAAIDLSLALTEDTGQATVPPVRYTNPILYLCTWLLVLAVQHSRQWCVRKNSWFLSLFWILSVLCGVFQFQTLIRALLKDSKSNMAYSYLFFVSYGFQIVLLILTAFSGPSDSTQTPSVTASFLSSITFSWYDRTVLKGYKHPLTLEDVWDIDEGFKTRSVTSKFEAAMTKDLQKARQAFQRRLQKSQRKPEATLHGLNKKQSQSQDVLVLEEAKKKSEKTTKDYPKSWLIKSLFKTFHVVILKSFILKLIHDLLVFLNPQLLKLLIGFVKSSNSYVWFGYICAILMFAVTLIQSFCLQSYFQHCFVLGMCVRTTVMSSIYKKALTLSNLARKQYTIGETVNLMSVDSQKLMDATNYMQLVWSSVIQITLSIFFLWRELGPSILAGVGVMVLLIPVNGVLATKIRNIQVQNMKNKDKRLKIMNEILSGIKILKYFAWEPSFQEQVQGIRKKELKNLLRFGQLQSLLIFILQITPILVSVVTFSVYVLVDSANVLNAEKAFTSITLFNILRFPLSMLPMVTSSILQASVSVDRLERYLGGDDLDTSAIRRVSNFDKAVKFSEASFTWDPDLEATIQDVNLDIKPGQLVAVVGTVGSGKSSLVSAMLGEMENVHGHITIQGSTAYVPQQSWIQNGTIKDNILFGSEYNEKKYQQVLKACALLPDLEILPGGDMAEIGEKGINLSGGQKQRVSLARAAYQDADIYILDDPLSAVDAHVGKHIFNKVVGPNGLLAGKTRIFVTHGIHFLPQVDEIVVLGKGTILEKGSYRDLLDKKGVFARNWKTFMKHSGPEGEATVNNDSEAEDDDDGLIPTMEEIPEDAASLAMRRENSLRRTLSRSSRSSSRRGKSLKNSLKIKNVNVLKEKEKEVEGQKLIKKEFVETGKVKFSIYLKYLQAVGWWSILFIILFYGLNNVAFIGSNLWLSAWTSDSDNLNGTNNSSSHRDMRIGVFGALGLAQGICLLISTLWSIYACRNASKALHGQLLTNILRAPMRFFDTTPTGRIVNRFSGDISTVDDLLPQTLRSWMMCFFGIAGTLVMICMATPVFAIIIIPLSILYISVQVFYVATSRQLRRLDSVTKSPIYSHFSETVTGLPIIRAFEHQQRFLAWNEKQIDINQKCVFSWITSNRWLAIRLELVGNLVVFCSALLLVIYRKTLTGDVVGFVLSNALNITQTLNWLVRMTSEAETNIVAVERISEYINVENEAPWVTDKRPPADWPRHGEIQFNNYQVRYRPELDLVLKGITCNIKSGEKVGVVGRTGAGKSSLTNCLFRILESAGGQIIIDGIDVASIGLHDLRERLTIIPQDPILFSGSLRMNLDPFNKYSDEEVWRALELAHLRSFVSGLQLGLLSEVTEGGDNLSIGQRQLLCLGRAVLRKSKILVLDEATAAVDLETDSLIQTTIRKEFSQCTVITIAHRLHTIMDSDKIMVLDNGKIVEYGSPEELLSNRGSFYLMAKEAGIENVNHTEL

Question: What does the source list for `OC[C@H]1O[C@@H](Oc2c(O)cc(O)cc2/C=C/c2ccc(O)cc2)[C@H](O)[C@@H](O)[C@@H]1O` [TSG, 2,3,5,4′-tetrahydroxystilbene-2-O-β-D-glucoside]?
Answer: bilateral (AP-BL and BL-AP) Papp versus concentration ([1]; 10, 30 and 60 μg·mL^− 1): decreased substantially with increasing concentration; absorption class from Papp ([1]; Caco-2 cell monolayer): moderately absorbed drug; Papp values of bidirectional transport versus pH ([1]; TSG 30 μg·mL^− 1, pH 7.4, 6.4, 5.4): increased significantly with the decrease of pH value; time at which bilateral Papp values reached the maximum ([1]; after administration, 10, 30 and 60 μg·mL^− 1): 1 h; absorption rate in the intestine ([2]; in situ perfusion, rat): lower than 20%; Ka between pH 6.4 and 7.4 ([2]; rat intestinal perfusion, p < 0.01): significant increase; PA value of pH 7.4 versus pH 6.4 and 5.4 ([2]; rat intestinal perfusion, p < 0.05): significantly different; absorption rate constant (Ka) at 10 μg·mL^− 1 versus 30 and 60 μg·mL^− 1 ([2]; rat small intestine, p < 0.05): significantly greater; percentage of absorption (PA) at 10 μg·mL^− 1 versus 30 and 60 μg·mL^− 1 ([2]; rat small intestine, p < 0.05): significantly greater; absorption in stomach ([3]; TSG 10, 30 and 60 μg·mL^− 1): well absorbed; absorption in stomach versus concentration ([3]; TSG 10, 30 and 60 μg·mL^− 1, p < 0.05): increased significantly with concentration; expression of MRP2 in cells [4]: decreased; viability at 5 h, 60 μg·mL^-1 [5]: > 90%; cell viability ([6]; Caco-2 cells, TSG more than 60 μg·mL^− 1, MTT): significantly decreased; toxicity on Caco-2 cells ([6]; TSG 0.75–60 μg·mL^− 1, MTT): basically no toxicity; absorption half-life (t1/2Ka) [7]: 14.80 min; maximal concentration (Cmax) [7]: 5.70 μg·mL^− 1; expression of P-gp in Caco-2 cells [8]: increased with concentration; substrate of efflux protein MRP2 ([9]; conclusion from in situ transport data): may be the substrate

Question: For `CCCN(CCC)S(=O)(=O)c1ccc(C(=O)O)cc1` [probenecid], which “increase of Papp values of TSG, AP-BL side” value [10, 11] is on record?
Answer: ~2.22 times

Question: What about the “increase of Papp values of TSG, BL-AP side” value [10, 11] of the same compound?
Answer: ~1.82 times

Question: And the “increase of Papp values of TSG, AP-BL side” value [10, 12]?
Answer: ~3.02 times

Question: What about the “increase of Papp values of TSG, BL-AP side” value [10, 12] of the same compound?
Answer: ~1.91 times

Question: And the “Ka values of TSG in presence of inhibitor” value [9, 13]?
Answer: significantly enhanced

Question: And the “PA values of TSG in presence of inhibitor” value [9, 13]?
Answer: significantly enhanced
